# Earlier results in patent publication US20050096369A1, “Compositions and methods for treating cellular proliferation disorders” (priority 2003, published 2005).
# Columns and labels:
# leukemia cells = settings: Zhu Ningxi, et al.
# [1] = Merck Index
# [2] = tested on: cell lines derived from human malignancies; settings: Pizer et al.
# [3] = not given; remark: listed apart in the source
# [4] = tested on: voltage-gated sodium channel; settings: PDR and Zhou, 2003
# calcium-channel = settings: PDR and Zhou, 2003
# [5] = tested on: voltage gated calcium channels; settings: cultured rat hippocampal neurons; concentration and voltage dependant (Weng et al., 2003)
compound,measurement,setting,value
O=C1CCC[C@@H]2[C@H]3CCCN4CCC[C@@H](CN12)[C@@H]34 [matrine],effect on leukemia cell differentiation,leukemia cells,could help leukemia cells differentiate into mature and normal white blood cells
same,water solubility,[1],water soluble
same,time to excretion by the kidneys,in vivo,≤ 24 h
same,stability in the blood,not converted by the liver,stable in the blood
C/C=C/C/C=C/CCC(=O)[C@H]1O[C@H]1C(N)=O [cerulenin],cytotoxicity,[2],selectively cytotoxic to cell lines derived from human malignancies
O=C1CCC[C@@H]2[C@H]3CCC[N+]4([O-])CCC[C@@H](CN12)[C@@H]34 (stereo partly drawn) [oxymatrine],fate when administered by injection,injection,stable and is excreted as oxymatrine
same,fate when taken orally,oral,converted to matrine
"CCOC(=O)C1=C[C@]2(CC)CCCN3CCc4c(n1c1ccccc41)[C@@H]32 [vinpocetine, eburnamenine-14-carboxylic acid ethyl ester]",time to peak plasma levels,[3]; after ingestion,one to one and a half
same,time in which most of a dose is excreted,[3]; excreted in urine as apovincaminic acid,≤ 24 h
same,elimination half-life,[3]; following ingestion,one to two
same,absorption,[3]; given with food,up to 60 % of an ingested dose
same,absorption of an ingested dose,[3]; on an empty stomach,≥ 7%
same,voltage-gated sodium channel blocking,[4],voltage-gated sodium channel blocking activity
same,calcium-channel blocking,calcium-channel,calcium-channel blocking activity
"N=C(N)NCCCCN [Agmatine, agmatine]",effect on voltage gated calcium channels,[5],block voltage gated calcium channels
